The values below come from patent US20260297542A1, “HERBICIDE RESISTANT PLANTS” (SYNGENTA CROP PROTECTION AG, priority 2023, published 2026).

As usually defined, the inhibition is the relative decrease from the control value, in per cent.

Structures are written as SMILES.

In the assay the target is T1, WT (SEQ ID NO.1) AtPPO1 (Arabidopsis thaliana, UniProt P55826).
T1 construct: made in house; host or cells: E. coli BL21 (DE3) hemG, crude extract
T1 sequence (P55826 35-537): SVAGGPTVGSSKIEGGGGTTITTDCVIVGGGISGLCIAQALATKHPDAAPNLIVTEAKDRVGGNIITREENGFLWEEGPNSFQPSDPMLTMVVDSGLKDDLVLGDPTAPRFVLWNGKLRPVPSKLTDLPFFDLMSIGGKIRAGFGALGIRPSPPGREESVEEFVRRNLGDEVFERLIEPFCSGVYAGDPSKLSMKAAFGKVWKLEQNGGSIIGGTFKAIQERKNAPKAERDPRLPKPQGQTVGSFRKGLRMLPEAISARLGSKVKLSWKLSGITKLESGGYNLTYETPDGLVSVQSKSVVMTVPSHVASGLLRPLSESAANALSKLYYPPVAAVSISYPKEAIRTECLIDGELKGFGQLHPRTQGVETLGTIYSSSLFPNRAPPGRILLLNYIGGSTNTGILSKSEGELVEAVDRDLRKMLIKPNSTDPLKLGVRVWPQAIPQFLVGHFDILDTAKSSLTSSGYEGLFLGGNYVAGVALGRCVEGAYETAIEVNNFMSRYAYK
The experiment in a line: fluorescent Protoporphyrinogen Oxidase assay, crude extract. Conditions: read-out: percentage inhibition. The assay is classed as biochemical.

As to `C#CCN1C(=O)C(F)(F)Oc2cc(F)c(-n3c(=O)n(C)c(=S)n(C)c3=O)cc21` [Herbicide B, trifludimoxazin], the inhibition at 0.1 ppm was 97%, the inhibition at 1 ppm was determined as 97%, the inhibition at 10 ppm came out at 96% and the inhibition at 100 ppm was 100%.
With `CCOC(=O)COc1ncccc1Oc1cc(-n2c(=O)cc(C(F)(F)F)n(C)c2=O)c(F)cc1Cl` [Herbicide A, epyrifenacil], the inhibition at 0.1 ppm was 94%, the inhibition at 1 ppm worked out at 100%, the inhibition at 10 ppm is 97% and the inhibition at 100 ppm was 100%.
For `CCOC(=O)[C@]1(C)CC(c2cc(-n3c(=O)n(C)c(=S)n(C)c3=O)c(F)cc2Cl)=NO1` [Herbicide D, ethyl (5S)-3-[2-chloro-5-(3,5-dimethyl-2,6-dioxo-4-thioxo-1,3,5-triazinan-1-yl)-4-fluoro-phenyl]-5-methyl-4H-isoxazole-5-carboxylate], the inhibition at 0.1 ppm amounted to 91%, the inhibition at 1 ppm amounted to 90%, the inhibition at 10 ppm is 96% and the inhibition at 100 ppm turned out to be 100%.
Regarding `CC(C)N(C)S(=O)(=O)NC(=O)c1cc(-n2c(=O)cc(C(F)(F)F)n(C)c2=O)c(F)cc1Cl` [Herbicide E, saflufenacil], the inhibition at 0.1 ppm came out at 91%, the inhibition at 1 ppm amounted to 97%, the inhibition at 10 ppm came out at 100% and the inhibition at 100 ppm was found to be 100%.
`CCOC(=O)C1(C)CC(c2cc(-n3c(=O)cc(C(F)(F)F)n(C)c3=O)c(F)cc2Cl)=NO1` (centres unmarked) [Herbicide C, 3-(2-chloro-4-fluoro-5-(3-methyl-2,6-dioxo-4-trifluoromethyl-3,6-dihydropyrimidin-1(2H)-yl)phenyl)-5-methyl-4,5-dihydroisoxazole-5-carboxylic acid ethyl ester]: the inhibition at 0.1 ppm was found to be 91%, the inhibition at 1 ppm was found to be 91%, the inhibition at 10 ppm was found to be 98% and the inhibition at 100 ppm was 93%.
